Experimental data from patent US20160143884A1, “USE OF TETRAHYDROINDAZOLYLBENZAMIDE AND TETRAHYDROINDOLYLBENZAMIDE DERIVATIVES FOR THE TREATMENT OF HUMAN IMMUNODEFICIENCY VIRUS (HIV) AND ACQUIRED IMMUNE DEFICIENCY SYNDROME (AIDS)” (Esanex, Inc., priority 2014, published 2016).

Legend:
HIV-1Ba-L = assay: Anti-HIV efficacy evaluation in fresh human PBMCs (reverse transcriptase activity readout); assay type: cell-based
Experimental: Anti-HIV Efficacy Evaluation in Fresh Human PBMCs Assay Protocol:
Fresh human PBMCs, seronegative for HIV and HBV, are isolated from screened donors (Biological Specialty Corporation, Colmar, Pa.). Cells are pelleted/washed 2-3 times by low speed centrifugation and re-suspension in PBS to remove contaminating platelets. […] Banded PBMCs are gently aspirated from the resulting interface and subsequently washed 2× with PBS by low speed centrifugation. […] The cells are allowed to incubate for 48-72 hours at 37° C. […] IL-2 is included in the culture medium to maintain the cell division initiated by the PHA mitogenic stimulation. PBMCs are maintained in this medium at a concentration of 1-2×10^6 cells/mL with biweekly medium changes until used in the assay protocol. Cells are kept in culture for a maximum of two weeks before being deemed too old for use in assays and discarded. MDMs are depleted from the culture as the result of adherence to the tissue culture flask.
For the standard PBMC assay, PHA stimulated cells from at least two normal donors are pooled (mixed together), diluted in fresh medium to a final concentration of 1×10^6 cells/mL, and plated in the interior wells of a 96 well round bottom microplate at 50 uL/well (5×10^4 cells/well) in a standard format developed by the Infectious Disease Research department of Southern Research Institute. Pooling (mixing) of mononuclear cells from more than one donor is used to minimize the variability observed between individual donors, which results from quantitative and qualitative differences in HIV infection and overall response to the PHA and IL-2 of primary lymphocyte populations. Each plate contains virus/cell control wells (cells plus virus), experimental wells (drug plus cells plus virus) and compound control wells (drug plus media without cells, necessary for MTS monitoring of cytotoxicity). […] Therefore, infected wells are used in the assessment of both antiviral activity and cytotoxicity. Test drug dilutions are prepared at a 2× concentration in microtiter tubes and 100 μL of each concentration (nine total concentrations) are placed in appropriate wells using the standard format. 50 μL of a predetermined dilution of virus stock is placed in each test well (final MOI˜=0.1). The PBMC cultures are maintained for seven days following infection at 37° C., 5% CO2. After this period, cell-free supernatant samples are collected for analysis of reverse transcriptase activity and/or p24 antigen content. Following removal of supernatant samples, compound cytotoxicity is measured by addition of MTS to the plates for determination of cell viability. Wells are also examined microscopically and any abnormalities are noted.
Reverse Transcriptase Activity Assay Protocol:
Tritiated thymidine triphosphate (^3H-TTP, 80 Ci/mmol, NEN) is received in 1:1 dH2O:Ethanol at 1 mCi/mL. Poly rA:oligo dT template:primer (GE Healthcare) is prepared as a stock solution by combining 150 μL poly rA (20 mg/mL) with 0.5 mL oligo dT (20 units/mL) and 5.35 mL sterile dH2O followed by aliquoting (1.0 mL) and storage at −20° C. The RT reaction buffer is prepared fresh on a daily basis and consists of 125 μL 1.0 M EGTA, 125 μL dH2O, 125 μL 20% Triton X100, 50 μL 1.0 M Tris (pH 7.4), 50 μL 1.0 M DTT, and 40 μL 1.0 M MgCl2. The final reaction mixture is prepared by combining 1 part ^3H-TTP, 4 parts dH2O, 2.5 parts poly rA:oligo dT stock and 2.5 parts reaction buffer. Ten microliters of this reaction mixture is placed in a round bottom microtiter plate and 15 μL of virus containing supernatant is added and mixed. The plate is incubated at 37° C. for 60 minutes. Following incubation, the reaction volume is spotted onto DE81 filter-mats (Wallac), washed 5 times for 5 minutes each in a 5% sodium phosphate buffer or 2×SSC (Life Technologies).

[1] = MTS staining for PBMC viability to measure cytotoxicity; assay type: cell-based, human; conditions: human, PBMCs
Excerpt: (§1) Pooling (mixing) of mononuclear cells from more than one donor is used to minimize the variability observed between individual donors, which results from quantitative and qualitative differences in HIV infection and overall response to the PHA and IL-2 of primary lymphocyte populations. Each plate contains virus/cell control wells (cells plus virus), experimental wells (drug plus cells plus virus) and compound control wells (drug plus media without cells, necessary for MTS monitoring of cytotoxicity). […] Therefore, infected wells are used in the assessment of both antiviral activity and cytotoxicity. […] The PBMC cultures are maintained for seven days following infection at 37° C., 5% CO2. After this period, cell-free supernatant samples are collected for analysis of reverse transcriptase activity and/or p24 antigen content. Following removal of supernatant samples, compound cytotoxicity is measured by addition of MTS to the plates for determination of cell viability. Wells are also examined microscopically and any abnormalities are noted. MTS Staining for PBMC Viability to Measure Cytotoxicity Protocol: At assay termination, assay plates are stained with the soluble tetrazolium-based dye MTS (CellTiter 96 Reagent, Promega) to determine cell viability and quantify compound toxicity. The mitochondrial enzymes of metabolically active cells metabolize MTS to yield a soluble formazan product. This allows the rapid quantitative analysis of cell viability and compound cytotoxicity. […] At termination of the assay, 20 uL of MTS reagent is added per well. The microtiter plates are then incubated 4-6 hrs at 37° C. The incubation intervals were chosen based on empirically determined times for optimal dye reduction. Adhesive plate sealers are used in place of the lids, the sealed plate is inverted several times to mix the soluble formazan product and the plate is read spectrophotometrically at 490/650 nm with a Molecular Devices Vmax or SpectraMaxPlus plate reader.

PBMCs = assay: as above; assay type: cell-based, human
Excerpt: as §1

[2] = tested on: 2LTR non-integrated circular form of the HIV genome; assay: HIV integration in 2LTR assay (real-time PCR); assay type: cell-based, HIV-1
[3] = tested on: Rev-dependent VLP production; assay: Virus like particles (VLP) production in 293T cells, Gag(p24) ELISA; assay type: cell-based; conditions: 293T cells, 1, 0.1 and 0.01
Excerpt: 293T Cells were transfected with a gag-pol-RRE construct. When Rev is present and/or functioning, Gag is produced, forms virus like particles (VLP), and VLP are secreted into the culture supernatant. VLP in the media are quantified using a quantitative Gag(p24) ELISA.

In the case of `CC1(C)CC(=O)c2c(C(F)(F)F)nn(-c3ccc(C(N)=O)c(N[C@H]4CC[C@H](O)CC4)c3)c2C1` [Compound 9, 4-(6,6-Dimethyl-4-oxo-3-trifluoromethyl-4,5,6,7-tetrahydro-indazol-1-yl)-2-(trans-4-hydroxy-cyclohexylamino)-benzamide], the “IC 95% (95% inhibition of virus replication)” value (HIV-1Ba-L; HIV-1Ba-L in PBMCs) is reported as 11 nM, the “Selectivity Index TI (TC50/IC50)” value (HIV-1Ba-L; HIV-1Ba-L in PBMCs, 50%) is reported as 1.5 and the “Selectivity index (TI) 90%” value (HIV-1Ba-L; HIV-1Ba-L in PBMCs, TC90/IC90) is reported as >22.1. The “Selectivity index (TI) 95%” value (HIV-1Ba-L; HIV-1Ba-L in PBMCs, TC95/IC95) was >18.2, the IC50 (HIV-1Ba-L; Human immunodeficiency virus 1, PBMC, 168 h, read-out: Antiviral Activity IC50 (50% inhibition of virus replication), HIV-1Ba-L in PBMCs, seven days) was 20 nM and the IC90 (HIV-1Ba-L; Human immunodeficiency virus 1, PBMC, read-out: IC 90% (90% inhibition of virus replication)) was 90 nM. The CC50 at 7 days [1] was 30 nM, the “TC 90% (90% cytotoxicity)” value (PBMCs) was >2000 nM and the “TC 95% (95% cytotoxicity)” value (PBMCs) was >2000 nM. The “Expression level of 2LTR” value ([2]; 10 nM, both time points) was “expression levels similar to HIV Only”, the “Expression level of 2LTR” value ([2]; 100 nM) was “highest expression levels of 2LTR over all other samples” and the “Expression level of 2LTR” value ([2]; 1 μM) was “highest expression levels of 2LTR over all other samples”. For the same molecule, the “Inhibition of Rev-dependent VLP production” value [3] was “does not appear to robustly inhibit”.
